# Results from the supplement of paper PMC10307832.
# Key:
# Test in all cases: relative viability (nuclei count vs DMSO), 5 days (fraction); higher = more cells survive
# NCI-H1793 = test system: NCI-H1793
# Outline: (§1)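 Five library-drug doses in √10 steps were combined with a fixed anchor-drug dose, or a single drug was given alone, by pin tool to lung cancer cell lines in 1536-well plates the day after seeding. Nuclei were stained and counted after 5 days. Relative viability is the nuclei count in treated wells over that in vehicle wells, taken as the median of duplicate plates.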
# NCI-H647 = test system: NCI-H647
# Outline: as §1
# LOU-NH91 = test system: LOU-NH91
# Outline: as §1
# EPLC-272H = test system: EPLC-272H
# Outline: as §1
# PC-14 = test system: PC-14
# Outline: as §1
# NCI-H3122 = test system: NCI-H3122
# Outline: as §1
# NCI-H1993 = test system: NCI-H1993
# Outline: as §1
# NCI-H520 = test system: NCI-H520
# Outline: as §1
# NCI-H2347 = test system: NCI-H2347
# Outline: as §1
# HCC-44 = test system: HCC-44
# Outline: as §1
# NCI-H1563 = test system: NCI-H1563
# Outline: as §1
# NCI-H2170 = test system: NCI-H2170
# Outline: as §1
# H3255 = test system: H3255
# Outline: as §1
# 201T = test system: 201T
# Outline: as §1
# NCI-H2023 = test system: NCI-H2023
# Outline: as §1
# COR-L23 = test system: COR-L23
# Outline: as §1
# NCI-H441 = test system: NCI-H441
# Outline: as §1
# NCI-H2085 = test system: NCI-H2085
# Outline: as §1
# NCI-H2405 = test system: NCI-H2405
# Outline: as §1
# RERF-LC-KJ = test system: RERF-LC-KJ
# Outline: as §1
# NCI-H1734 = test system: NCI-H1734
# Outline: as §1
smiles,measurement,setting,value
CC1(C)CCC(c2ccc(Cl)cc2)=C(CN2CCN(c3ccc(C(=O)NS(=O)(=O)c4ccc(N[C@H](CCN5CCOCC5)CSc5ccccc5)c(S(=O)(=O)C(F)(F)F)c4)cc3)CC2)C1 [Navitoclax] + Cc1nc(NC(=O)N2CCC[C@H]2C(N)=O)sc1-c1ccnc(C(C)(C)C(F)(F)F)c1 [Alpelisib] (partner 2 µM),relative viability,NCI-H1793; first compound 0.005 µM,0.772
same,relative viability,NCI-H1793; first compound 0.01581 µM,0.799
same,relative viability,NCI-H1793; first compound 0.05 µM,0.574
same,relative viability,NCI-H1793; first compound 0.1581 µM,0.858
same,relative viability,NCI-H1793; first compound 0.5 µM,0.609
same,relative viability,NCI-H647; first compound 0.005 µM,1.04
same,relative viability,NCI-H647; first compound 0.01581 µM,1.35
same,relative viability,NCI-H647; first compound 0.05 µM,1.48
same,relative viability,NCI-H647; first compound 0.1581 µM,1.14
same,relative viability,NCI-H647; first compound 0.5 µM,0.75
same,relative viability,LOU-NH91; first compound 0.005 µM,0.729
same,relative viability,LOU-NH91; first compound 0.01581 µM,0.809
same,relative viability,LOU-NH91; first compound 0.05 µM,0.69
same,relative viability,LOU-NH91; first compound 0.1581 µM,0.769
same,relative viability,LOU-NH91; first compound 0.5 µM,0.645
same,relative viability,EPLC-272H; first compound 0.005 µM,0.877
same,relative viability,EPLC-272H; first compound 0.1581 µM,0.933
same,relative viability,EPLC-272H; first compound 0.5 µM,0.821
same,relative viability,PC-14; first compound 0.005 µM,0.833
same,relative viability,PC-14; first compound 0.01581 µM,1.02
same,relative viability,PC-14; first compound 0.05 µM,0.92
same,relative viability,PC-14; first compound 0.1581 µM,0.926
same,relative viability,PC-14; first compound 0.5 µM,0.904
same,relative viability,NCI-H3122; first compound 0.005 µM,0.686
same,relative viability,NCI-H3122; first compound 0.01581 µM,0.8
same,relative viability,NCI-H3122; first compound 0.05 µM,0.726
same,relative viability,NCI-H3122; first compound 0.1581 µM,0.901
same,relative viability,NCI-H3122; first compound 0.5 µM,0.766
same,relative viability,NCI-H1993; first compound 0.005 µM,0.658
same,relative viability,NCI-H1993; first compound 0.01581 µM,0.732
same,relative viability,NCI-H1993; first compound 0.05 µM,0.682
same,relative viability,NCI-H1993; first compound 0.1581 µM,0.676
same,relative viability,NCI-H1993; first compound 0.5 µM,0.749
same,relative viability,NCI-H520; first compound 0.005 µM,0.915
same,relative viability,NCI-H520; first compound 0.01581 µM,0.892
same,relative viability,NCI-H520; first compound 0.05 µM,0.981
same,relative viability,NCI-H520; first compound 0.1581 µM,0.892
same,relative viability,NCI-H520; first compound 0.5 µM,0.982
same,relative viability,NCI-H2347; first compound 0.005 µM,0.997
same,relative viability,NCI-H2347; first compound 0.01581 µM,1.07
same,relative viability,NCI-H2347; first compound 0.05 µM,1.08
same,relative viability,NCI-H2347; first compound 0.1581 µM,0.927
same,relative viability,NCI-H2347; first compound 0.5 µM,1.2
same,relative viability,HCC-44; first compound 0.005 µM,0.736
same,relative viability,HCC-44; first compound 0.01581 µM,0.805
same,relative viability,HCC-44; first compound 0.05 µM,0.849
same,relative viability,HCC-44; first compound 0.1581 µM,0.795
same,relative viability,HCC-44; first compound 0.5 µM,0.694
same,relative viability,NCI-H1563; first compound 0.005 µM,0.947
same,relative viability,NCI-H1563; first compound 0.01581 µM,1.03
same,relative viability,NCI-H1563; first compound 0.05 µM,0.989
same,relative viability,NCI-H1563; first compound 0.1581 µM,0.981
same,relative viability,NCI-H1563; first compound 0.5 µM,1.13
same,relative viability,NCI-H2170; first compound 0.005 µM,0.785
same,relative viability,NCI-H2170; first compound 0.01581 µM,0.872
same,relative viability,NCI-H2170; first compound 0.05 µM,0.927
same,relative viability,NCI-H2170; first compound 0.1581 µM,0.8
same,relative viability,NCI-H2170; first compound 0.5 µM,0.583
same,relative viability,H3255; first compound 0.005 µM,0.635
same,relative viability,H3255; first compound 0.01581 µM,0.745
same,relative viability,H3255; first compound 0.05 µM,0.6
same,relative viability,H3255; first compound 0.1581 µM,0.744
same,relative viability,H3255; first compound 0.5 µM,0.732
same,relative viability,201T; first compound 0.005 µM,1.03
same,relative viability,201T; first compound 0.01581 µM,1.04
same,relative viability,201T; first compound 0.05 µM,1.02
same,relative viability,201T; first compound 0.1581 µM,1
same,relative viability,201T; first compound 0.5 µM,1.03
same,relative viability,NCI-H2023; first compound 0.005 µM,0.581
same,relative viability,NCI-H2023; first compound 0.01581 µM,0.696
same,relative viability,NCI-H2023; first compound 0.05 µM,0.586
same,relative viability,NCI-H2023; first compound 0.1581 µM,0.616
same,relative viability,NCI-H2023; first compound 0.5 µM,0.625
same,relative viability,COR-L23; first compound 0.005 µM,0.67
same,relative viability,COR-L23; first compound 0.01581 µM,0.807
same,relative viability,COR-L23; first compound 0.05 µM,0.697
same,relative viability,COR-L23; first compound 0.1581 µM,0.7
same,relative viability,COR-L23; first compound 0.5 µM,0.855
same,relative viability,NCI-H441; first compound 0.005 µM,0.654
same,relative viability,NCI-H441; first compound 0.01581 µM,0.901
same,relative viability,NCI-H441; first compound 0.05 µM,0.852
same,relative viability,NCI-H441; first compound 0.1581 µM,0.743
same,relative viability,NCI-H441; first compound 0.5 µM,0.63
same,relative viability,NCI-H2085; first compound 0.005 µM,0.944
same,relative viability,NCI-H2085; first compound 0.01581 µM,0.996
same,relative viability,NCI-H2085; first compound 0.05 µM,0.881
same,relative viability,NCI-H2085; first compound 0.1581 µM,0.957
same,relative viability,NCI-H2085; first compound 0.5 µM,0.925
same,relative viability,NCI-H2405; first compound 0.005 µM,0.762
same,relative viability,NCI-H2405; first compound 0.01581 µM,0.896
same,relative viability,NCI-H2405; first compound 0.05 µM,0.954
same,relative viability,NCI-H2405; first compound 0.1581 µM,0.83
same,relative viability,NCI-H2405; first compound 0.5 µM,0.834
same,relative viability,RERF-LC-KJ; first compound 0.005 µM,0.794
same,relative viability,RERF-LC-KJ; first compound 0.01581 µM,0.839
same,relative viability,RERF-LC-KJ; first compound 0.05 µM,0.765
same,relative viability,RERF-LC-KJ; first compound 0.1581 µM,0.75
same,relative viability,RERF-LC-KJ; first compound 0.5 µM,0.793
same,relative viability,NCI-H1734; first compound 0.005 µM,0.618
same,relative viability,NCI-H1734; first compound 0.01581 µM,0.779
same,relative viability,NCI-H1734; first compound 0.1581 µM,0.645
same,relative viability,NCI-H1734; first compound 0.5 µM,0.63
